Measured values reported in patent US20240166596A1, “SULFAMOYL BENZENE DERIVATIVES AND USES THEREOF” (AphioTx Inc., priority 2021, published 2024).

How the values were obtained:
[1] = biological target: T1, rPanx1 (Rattus norvegicus Pannexin-1) expressed in 293T cells (Rattus norvegicus, UniProt P60570); assay: Whole-cell patch-clamp of Panx1 currents in transfected 293T cells; type: cell-based, Homo sapiens; settings: voltage ramp -80 to +80 mV, various doses
T1 construct: expressed in transfected cells; host or cells: Human embryonic kidney-293T cells (ATCC), transient Lipofectamine 2000 transfection
Protocol: To further compare the effects of probenecid, Compounds 1 and 5 on Pannexin-1 channels […] Panx-1 was expressed in embryonic kidney-293T cells (293T) and channel activity was assessed at various doses of each compound.
Rattus norvegicus Pannexin-1 (rPanx1) complementary DNA (cDNA) was cloned between BamHI and SalI sites in a pRK5 expression vector (pRK5-rPanx1). Enhanced green fluorescent protein (EGFP) plasmid (pEGFP-C1) was commercially purchased (addgene).
Human embryonic kidney-293T cells (293T) were purchased from ATCC and routinely maintained in the laboratory. Adherent 293T cells were grown in Dulbecco's modified Eagle's medium (Thermo Fisher) supplemented with 10% fetal bovine serum (Thermo Fisher) and 1% penicillin-streptomycin (10,000 U/mL; Thermo Fisher) at 37° C. in a 5% CO2 humidified growth incubator. 293T cells between the passages 6-20 were used for experiments. For patch-clamp recordings, 293T cells reaching 40-60% confluency on 35 mm culture plates were transiently transfected using Lipofectamine 2000 (Thermo Fisher) 36-48 hours before experiments, using the manufacturer's protocol. 293T cells were transfected with 2.5 μg pRK5-rPanx1 and 0.5 μg pEGFP-C1 cDNAs at a mixed ratio of 5:1 to identify positively transfected cells.
On the day of experiments, transiently transfected 293T cells overexpressing rPanx1 and EGFP cDNAs were seeded onto poly-d-lysine coated glass coverslips at least 2 hours before recordings. […] Data was acquired using Clampex (v.10) software and an Axon Digidata 1550A digitizer (Axon Instruments) at 10 kHz, with currents analyzed offline in Clampfit software (v.10.7). […]
293T cells were voltage clamped at −60 mV in whole-cell configuration and exposed to a 300 ms voltage ramp (−80 to +80 mV) before stepping back to −60 mV to record rPanx1 voltage-sensitive currents. Baseline currents were first measured in extracellular solution before perfusion of drug compounds in incrementally increasing concentrations. […]

Panx1 channel = biological target: T2, Panx1 channel (Mus musculus, UniProt Q9JIP4); assay: YO-PRO-1 dye uptake assay in BV-2 microglia-like cells (BzATP stimulation); type: cell-based; settings: BV-2 cells
T2 construct: endogenous in cells; host or cells: BV-2 microglia-like cells
Protocol: After plating into 96 well plates, cell culture media was removed and BV-2 cells were incubated in extracellular solution (ECS) (140 mM NaCl, 4.5 mM KCl, 1.3 mM CaCl2, 10 mM HEPES, and 33 mM glucose; pH7.35, osmolarity 315 mOsm) containing YO-PRO-1 dye (2.5 μM, Invitrogen). After a 5 minute baseline recording, cells were stimulated with 3′-O-(4-benzoyl)benzoyl adenosine 5′-triphosphate (BzATP) (150 μM, Toronto Research Chemicals) and dye-uptake was recorded for 30 minutes. Cell viability was assessed immediately after the 30 minute recording by application of ionomycin (1 μM, Sigma). […] YO-PRO-1 fluorescent emission (491/509) was detected using a FilterMax F5 plate reader (Molecular Devices). Drugs used include (−)-norepinephrine (100 pM-1 μM, Sigma), probenecid (1 mM, Life Technologies), and Compound 1 (10 nM, Derksen et al). Drugs were bath applied in ECS containing YO-PRO-1 dye and incubated at 37° C. for 10 minutes prior to BzATP stimulation. Fluorescent emission at 30 minutes post-BzATP was calculated as an average of the entire imaging field as percent change from baseline, and responses at 30 minutes were averaged over multiple independent experiments. Individual traces of BV-2 YO-PRO-1 dye uptake were taken at 10 minute intervals and represent the average response of all BV-2 cells in the recorded view from a subset of experiments.
BV-2 microglia-like cells were maintained in DMEM (Gibco) containing 5% fetal bovine serum (Gibco) and 1% penicillin-streptomycin (Gibco) with 5% CO2.
The compounds tested were designed to more readily penetrate the blood brain barrier and were therefore predicted to require a lower dose to produce similar effects. Prior to testing the compounds in animals, the compounds were first tested in BV2 microglia-like cells using the YO-PRO-1 Dye Uptake Assay. By using this assay, Panx1 channel activity in response to BzATP stimulation of P2X7, an upstream receptor that causes Panx1 pore formation can be assessed. YO-PRO-1 is a large molecular weight dye that can only enter the cell through large pore ion channels such as Panx1, therefore its uptake correlates with Panx1 channel opening. BzATP stimulation causes a significant increase in YO-PRO-1 dye uptake in cells pre-treated with ECS and vehicle solution (0.1% DMSO) (FIG. 1, B).

T2 sequence (Q9JIP4 whole entry): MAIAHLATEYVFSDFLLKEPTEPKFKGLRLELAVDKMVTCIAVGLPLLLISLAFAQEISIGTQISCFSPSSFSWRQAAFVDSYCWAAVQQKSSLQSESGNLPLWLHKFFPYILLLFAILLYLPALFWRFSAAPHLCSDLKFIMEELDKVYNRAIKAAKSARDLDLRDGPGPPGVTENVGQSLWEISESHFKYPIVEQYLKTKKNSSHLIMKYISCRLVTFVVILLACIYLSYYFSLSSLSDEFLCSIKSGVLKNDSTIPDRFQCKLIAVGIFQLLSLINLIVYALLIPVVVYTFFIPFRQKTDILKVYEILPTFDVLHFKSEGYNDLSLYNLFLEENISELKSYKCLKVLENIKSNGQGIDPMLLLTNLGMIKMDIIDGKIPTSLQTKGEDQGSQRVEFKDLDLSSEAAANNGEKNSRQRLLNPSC
T1 sequence (P60570 whole entry): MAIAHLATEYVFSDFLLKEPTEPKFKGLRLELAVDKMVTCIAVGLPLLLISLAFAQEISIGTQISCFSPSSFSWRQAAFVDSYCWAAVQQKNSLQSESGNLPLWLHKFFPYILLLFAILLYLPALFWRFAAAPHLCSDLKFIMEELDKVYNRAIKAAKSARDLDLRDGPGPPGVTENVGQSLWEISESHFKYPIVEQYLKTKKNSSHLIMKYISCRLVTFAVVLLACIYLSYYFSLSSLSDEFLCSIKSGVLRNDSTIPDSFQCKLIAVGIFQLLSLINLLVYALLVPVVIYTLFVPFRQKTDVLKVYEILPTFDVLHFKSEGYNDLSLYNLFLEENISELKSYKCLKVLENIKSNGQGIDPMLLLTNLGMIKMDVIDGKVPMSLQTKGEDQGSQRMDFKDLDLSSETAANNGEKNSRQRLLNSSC

With CCCN(CCC)S(=O)(=O)c1ccc(C(O)(C(F)(F)F)C(F)(F)F)cc1 [Compound 1, 4-(1,1,1,3,3,3-hexafluoro-2-hydroxypropan-2-yl)-N,N-dipropylbenzenesulfonamide] the “Panx1 inhibitory potency relative to Probenecid (patch-clamp)” value [1] was “more potent”, the “Potency at inhibiting Panx1 channel opening relative to probenecid” value (Panx1 channel) was “more potent than probenecid” and the “Concentration blocking Panx1 channel activity, fold lower than probenecid” value (Panx1 channel; Compound 1 10 nM vs probenecid 1 mM) was 100,000 fold. The “Panx1 channel activity (BzATP-stimulated YO-PRO-1 dye uptake)” value (Panx1 channel; Compound 1 10 nM, 10 min pre-treatment, BzATP 150 μM, 30 min) was “significantly blocked”.
